Values joined by “and” are separate entries in the source; they are usually repeats but may differ in a detail not shown here. Equal values may be shown once. Read-outs that look alike come from different tables or passages of the source.
How the values were obtained:
CHO-CRE-SPAP cells = conditions: no transfected receptor, as previously reported; cited from earlier work
β1-V189T-L195Q-W199Y [1] = molecular target: T1, β1-V189T-L195Q-W199Y (Homo sapiens, UniProt P08588, L195Q/V189T/W199Y); assay: CRE-SPAP production in stable mixed populations of CHO cells expressing β1-V189T-L195Q-W199Y; format: cell-based; design: expressed in transfected cells
T1 sequence (P08588 whole entry V189T/L195Q/W199Y): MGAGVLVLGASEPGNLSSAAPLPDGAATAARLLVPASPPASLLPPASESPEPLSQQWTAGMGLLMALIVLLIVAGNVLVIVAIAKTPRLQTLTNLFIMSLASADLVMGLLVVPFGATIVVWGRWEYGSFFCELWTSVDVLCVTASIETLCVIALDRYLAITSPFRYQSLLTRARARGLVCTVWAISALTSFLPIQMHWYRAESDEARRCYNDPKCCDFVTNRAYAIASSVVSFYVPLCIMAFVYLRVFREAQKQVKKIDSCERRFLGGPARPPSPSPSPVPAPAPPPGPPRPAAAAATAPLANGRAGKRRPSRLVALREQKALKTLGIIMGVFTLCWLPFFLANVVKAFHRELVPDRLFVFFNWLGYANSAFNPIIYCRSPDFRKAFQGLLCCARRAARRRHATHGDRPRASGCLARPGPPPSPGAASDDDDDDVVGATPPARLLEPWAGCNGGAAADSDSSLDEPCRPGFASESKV
Experimental: (§1) Selection antibiotics were then removed.
(§2) Many agonist responses were best described by a one-site sigmoidal agonist concentration-response curve.
(§3) Where clear partial agonism was present (eg, Fig. 3D), the partial agonist affinity was calculated by the method of Stephenson[40] using equation 7.
(§4) (7) KDpartialagonist=Y×P/1-YwhereY=A2-A1/A3 where [P] is the concentration of the partial agonist, [A1] is the concentration of the agonist at the point where the fixed partial agonist causes the same response, [A2] is the concentration of agonist causing a given response above that achieved by the partial agonist, and [A3] is the concentration of the agonist, in the presence of the partial agonist, causing the same stimulation as [A2].

β1-AR [2] = molecular target: T2, β1-AR (Homo sapiens, UniProt P08588); assay: CRE-SPAP production in CHO-β1-CRE-SPAP cells; format: cell-based; design: expressed in transfected cells; host or cells: CHO-K1 clonal lines (CHO-β1-CRE-luc, CHO-β1-CRE-SPAP); conditions: for EC50: read-out: Log EC50 (converted); for % Isoprenaline: response compared with 10 μM isoprenaline
T2 sequence (P08588 whole entry): as the sequence (P08588 whole entry V189T/L195Q/W199Y) above, with T189V, Q195L, Y199W counted along it
Experimental: as §2
(§5) In experiments where 3 different fixed concentrations of the same antagonist were used, Schild plots were constructed using equation (6):(6) logDR-1=logB-logKD
(§6) These points were then fitted to a straight line. A slope of 1 then indicates competitive antagonism.[39]
as §3, §4
(§7) where N is the percentage of site 1, [A] is the concentration of agonist, and EC1_50 and EC2_50 are the respective EC50 values for the 2 agonist sites.

β1-WT [3] = molecular target: T3, β1-WT (Homo sapiens, UniProt P08588); assay: CRE-SPAP production in stable mixed populations of CHO cells expressing β1-WT; format: cell-based; design: expressed in transfected cells; conditions: for EC50: biphasic concentration response
T3 sequence (P08588 whole entry): as the sequence (P08588 whole entry V189T/L195Q/W199Y) above, with T189V, Q195L, Y199W counted along it
Experimental: as §1, §2, §3, §4, §7

β1-V189T-L195Q-W199Y [4] = molecular target: T1, β1-V189T-L195Q-W199Y; assay: 3H-CGP12177 whole-cell binding in stable mixed populations of CHO cells expressing β1-V189T-L195Q-W199Y
Experimental: (§8) Clonal cell lines of Chinese hamster ovary (CHO)-K1 cells (RIDD: CVCL_0214) stably transfected with the wild-type human β1-AR and a CRE-luciferase reporter gene (CHO-β1-CRE-luc), cells stably transfected with the human β1- or β2-AR and CRE-SPAP reporter gene (CHO-β1-CRE-SPAP, CHO β2-CRE-SPAP), and cells expressing the CRE-SPAP reporter gene but with no transfected receptor (CHO-CRE-SPAP) were used.[19]^,[23]
(§9) Briefly, cells were grown to confluence in tissue-culture-treated white-sided 96-well view plates. […] A white bottom was applied to convert the wells to white-bottomed, white-sided wells, 100 μL Microscint 20 was then added to each well, and a clear sealant top was applied. The plates left for at least 8 hours in the dark before being counted on a Topcount for 2 minutes per well.
(§10) The affinity of the other ligands was determined from competition binding.

β1-AR [5] = molecular target: T2, β1-AR; assay: Summary of pharmacological outcome at the β1-AR (CHO-β1-luciferase or CHO-β1-SPAP cells); conditions: for Evidence of SCE activation: evidence A–D as outlined in the Introduction, CHO-β1-luciferase or CHO-β1-SPAP cells; for Pharmacological Outcome: CCE/IBS conformation / Pharmacological Outcome: SCE conformation: β1-AR, summary
Experimental: Briefly, at 24 hours, the media was removed and 100 μL sfm added to each well (to serum starve the cells) for a second 24 hours before experimentation.

human β2-AR [6] = molecular target: T4, human β2-AR (Homo sapiens, UniProt P07550); assay: 3H-CGP12177 whole-cell binding in CHO-β2-CRE-SPAP cells; conditions: for β2-Selectivity: β2 over β1 affinity from whole-cell binding
T4 sequence (P07550 whole entry): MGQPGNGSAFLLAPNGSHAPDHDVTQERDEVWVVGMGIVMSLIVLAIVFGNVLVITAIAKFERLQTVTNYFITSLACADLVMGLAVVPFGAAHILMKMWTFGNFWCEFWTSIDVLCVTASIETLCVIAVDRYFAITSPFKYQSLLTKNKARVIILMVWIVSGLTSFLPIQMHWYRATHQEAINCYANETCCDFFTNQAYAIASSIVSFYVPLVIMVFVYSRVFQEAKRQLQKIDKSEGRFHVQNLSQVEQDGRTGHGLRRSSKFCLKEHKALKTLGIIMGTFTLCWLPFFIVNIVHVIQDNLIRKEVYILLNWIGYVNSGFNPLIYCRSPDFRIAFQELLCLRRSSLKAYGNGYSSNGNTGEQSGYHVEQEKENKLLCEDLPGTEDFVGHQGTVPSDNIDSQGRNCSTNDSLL
Experimental: as §9

β1-WT [7] = molecular target: T3, β1-WT; assay: 3H-CGP12177 whole-cell binding in stable mixed populations of CHO cells expressing β1-WT
Experimental: as §8, §9, §10

human β2-AR [8] = molecular target: T4, human β2-AR; assay: CRE-SPAP production in CHO-β2-CRE-SPAP cells; format: cell-based; design: expressed in transfected cells; host or cells: CHO-K1 clonal line (CHO-β2-CRE-SPAP); conditions: for % Isoprenaline: response compared with 10 μM isoprenaline; for Log ratio of affinities: cimaterol vs CGP12177 as agonist
Experimental: as §2, §5, §6, §3, §4

β1-AR [9] = molecular target: T2, β1-AR; assay: CRE-luciferase production in CHO-β1-CRE-luciferase cells; conditions: for EC50: Log EC50, agonist action; for Log ratio of affinities: catecholamine vs secondary conformation; for % isop: response compared to 10 μM isoprenaline; for Log KD Secondary Conformation, CGP12177 as agonist: rightward shift of CGP12177 response
β1-AR [10] = molecular target: T2, β1-AR; assay: 3H-CGP12177 whole-cell binding in CHO-β1-CRE-SPAP cells
Experimental: as §9

[11] = agonist action, CHO-β1-CRE-SPAP cells
[12] = Log KD (Cimaterol as Agonist), rightward shift of cimaterol response, Gaddum, or Stephenson (a)
[13] = CHO-β1-CRE-luciferase cells, given as log EC50 (negative)
[14] = Log KD (CGP12177 as Agonist), rightward shift of CGP12177 response
[15] = CHO-β1-CRE-luciferase cells, Gaddum, or Stephenson for partial agonists (a)

| Structure (SMILES) | CRE-SPAP response (CHO-CRE-SPAP cells) | EC50 (β1-AR [2]; [11]) | % Isoprenaline (β1-AR [2]; CHO-β1-CRE-SPAP cells) | Evidence of SCE activation (β1-AR [5]) | Pharmacological Outcome: CCE/IBS conformation (β1-AR [5]) | Kd (human β2-AR [6]) | β2-Selectivity (human β2-AR [6]) | Kd (human β2-AR [8]; [12]) | EC50 (human β2-AR [8]; agonist action) | % Isoprenaline (human β2-AR [8]) | EC50 (β1-AR [9]; [13]) | Log ratio of affinities (β1-AR [9]; CHO-β1-CRE-luciferase cells) | % isop (β1-AR [9]; CHO-β1-CRE-luciferase cells) | Kd (β1-AR [10]) | other results |
| --- | --- | --- | --- | --- | --- | --- | --- | --- | --- | --- | --- | --- | --- | --- | --- |
| CC(C)(C)NCC(O)COc1cccc2[nH]c(=O)[nH]c12 (stereo not shown) [CGP12177, 4-[3-(tert-butylamino)-2-hydroxypropoxy]-1,3-dihydrobenzimidazol-2-one] | no responses | – | – | – | – | – | – | – | – | – | – | – | – | – | – |
| Cn1cc(C(F)(F)F)nc1-c1ccc(OCC(O)CNCCOc2ccc(O)c(C(N)=O)c2)cc1 (stereo not shown) [CGP20712A] | no responses | – | – | – | – | – | – | – | – | – | – | – | – | – | – |
| CC(C)NCC(O)c1ccc(N)c(C#N)c1 (stereo not shown) [Cimaterol, 2-amino-5-[1-hydroxy-2-(propan-2-ylamino)ethyl]benzonitrile] | no responses | – | – | – | – | – | – | – | – | – | – | – | – | – | – |
| Cc1ccc(OCC(O)C(C)NC(C)C)c2c1CCC2 (stereo not shown) [ICI118551] | no responses | – | – | – | – | – | – | – | – | – | – | – | – | – | – |
| Cc1cc2c(OC[C@@H](O)CNC(C)(C)C)cccc2[nH]1 [VL01, (2S)-1-(tert-butylamino)-3-[(2-methyl-1H -indol-4-yl)oxy]propan-2-ol] | – | 2.75 nM | 70% and 69.6 ± 2.5% | ABCD | High-affinity neutral antagonist | 0.0295 nM | 12.0 fold | 0.00832 nM | 0.141 nM | 52.1 ± 3.5% | 166 nM | 3.55 | 20% and 19.7 ± 2.4% | 0.355 nM | EC50 (β1-V189T-L195Q-W199Y [1]; agonist action, β1-V189T-L195Q-W199Y stable mixed populations): 0.257 nM; Kd (β1-V189T-L195Q-W199Y [1]; read-out: Log KD, CRE-SPAP production β1-V189T-L195Q-W199Y (converted)): 0.0813 nM; % Isoprenaline (β1-V189T-L195Q-W199Y [1]; response compared to 10 μM isoprenaline, β1-V189T-L195Q-W199Y): 30.4 ± 1.3%; Kd (β1-AR [2]): 0.0676 nM; % at EC501 (β1-WT [3]; % of the response occurring via first component, β1-WT): 49.0 ± 2.3%; EC50 (β1-WT [3]; β1-WT, read-out: EC501 (log EC50 of first component) (converted)): 0.224 nM; EC50 (β1-WT [3]; β1-WT, read-out: EC502 (log EC50 of second component) (converted)): 200 nM; Kd (β1-WT [3]; read-out: Log KD, CRE-SPAP production β1-WT (converted)): 0.0575 nM; % Isoprenaline (β1-WT [3]; response compared to 10 μM isoprenaline, β1-WT): 42.9 ± 3.0%; Kd (β1-V189T-L195Q-W199Y [4]): 0.275 nM; Pharmacological Outcome: SCE conformation (β1-AR [5]): Agonist; Kd (β1-WT [7]): 0.141 nM |
| COc1ccc(OCC(O)CNCCc2c[nH]c3ccccc23)cc1 (stereo not shown) [VL06, 1-[2-(1H -indol-3-yl)ethylamino]-3-(4-methoxyphenoxy)propan-2-ol] | – | 339 nM | 53.6 ± 3.1% | None | Agonist | 977 nM | 1.1 fold | 457 nM | 363 nM | 15.2 ± 1.2% | 1410 nM | >1.46 | 2.7 ± 0.8% | 1120 nM | Kd (human β2-AR [8]; [14]): 1170 nM; Log ratio of affinities (human β2-AR [8]): 0.41; Kd (β1-AR [9]): 347 nM; Log KD Secondary Conformation, CGP12177 as agonist (β1-AR [9]; [15]): No shift 10 μM |
| O[C@H](CNCCc1c[nH]c2ccccc12)COc1ccc(F)cc1 [VL10, (2R)-1-(4-fluorophenoxy)-3-[2-(1H -indol-3-yl)ethylamino]propan-2-ol] | – | 18.6 nM | 67% and 66.9 ± 2.5% | None | Agonist | 89.1 nM | 2.1 fold | 37.2 nM | 39.8 nM | 28.7 ± 2.0% | 155 nM | 1.64 | 14% and 13.8 ± 1.5% | 186 nM | Kd (β1-AR [2]): 117 nM; Kd (human β2-AR [8]; [14]): 138 nM; Log ratio of affinities (human β2-AR [8]): 0.57 |
| Cc1ccc(OCC(O)CNC(C)C)cc1 (stereo not shown) [VL13, 1-(4-methylphenoxy)-3-(propan-2-ylamino)propan-2-ol] | – | – | – | None | No receptor interaction | – | – | – | – | – | – | – | – | – | Log EC50 (β1-AR [2]; [11]): No response; Log KD Secondary Conformation, CGP12177 as agonist (β1-AR [2]; rightward shift of CGP12177 response, CHO-β1-CRE-SPAP cells): No shift 10 μM; Log KD Catecholamine conformation Cimaterol as Agonist (β1-AR [2]; rightward shift of cimaterol response, CHO-β1-CRE-SPAP cells, Gaddum, or Stephenson (a)): No shift 10 μM; Pharmacological Outcome: SCE conformation (β1-AR [5]): No receptor interaction; Log KD β2 (human β2-AR [6]; competition with 3H-CGP12177, CHO-β2-CRE-SPAP cells, mean ± s.e.mean, given as log KD (negative)): No binding to 100 μM; Log EC50 (human β2-AR [8]; agonist action): No response; Log KD (CGP12177 as Agonist) (human β2-AR [8]; rightward shift of CGP12177 response): No shift 10 μM; Log KD (Cimaterol as Agonist) (human β2-AR [8]; rightward shift of cimaterol response, Gaddum, or Stephenson (a)): No shift 10 μM; Log EC50 (β1-AR [9]; agonist action, CHO-β1-CRE-luciferase cells, given as log EC50 (negative)): No response; Log KD Secondary Conformation, CGP12177 as agonist (β1-AR [9]; [15]): No shift 10 μM; Log KD Catecholamine conformation Cimaterol as Agonist (β1-AR [9]; rightward shift of cimaterol response, CHO-β1-CRE-luciferase cells, Gaddum, or Stephenson for partial agonists (a)): No shift at 10 μM; Log KD β1 (β1-AR [10]; competition with 3H-CGP12177, CHO-β1-CRE-SPAP cells, mean ± s.e.mean, given as log KD (negative)): No binding to 100 μM |
